How the values were obtained:
SF-295 = conditions: SF-295, CNS; for CC50: read-out: 50% lethal concentration (LC50)
SNB-75 = conditions: SNB-75, CNS; for CC50: read-out: 50% lethal concentration (LC50)
SF-268 = conditions: SF-268, CNS; for CC50: read-out: 50% lethal concentration (LC50)
UO-31 = conditions: UO-31, Renal; for CC50: read-out: 50% lethal concentration (LC50)
DU-145 = conditions: DU-145, Prostate
RPMI-8226 = conditions: RPMI-8226, Leukemia; for CC50: read-out: 50% lethal concentration (LC50)
UACC-257 = conditions: UACC-257, Melanoma
HOP-92 = conditions: for Total growth inhibition (TGI) / CC50: HOP-92, Non-Small Cell Lung; for GI50: HOP-92, Non-Small-Cell Lung; for CC50: read-out: 50% lethal concentration (LC50)
ACHN = conditions: for GI50 / Total growth inhibition (TGI): Renal; for CC50: read-out: 50% lethal concentration (LC50), Renal
UACC-62 = conditions: UACC-62, Melanoma; for CC50: read-out: 50% lethal concentration (LC50)
HCC-2998 = conditions: HCC-2998, Colon
K-562 = conditions: K-562, Leukemia; for CC50: read-out: 50% lethal concentration (LC50)
NCI-H522 = conditions: for Total growth inhibition (TGI) / CC50: NCI-H522, Non-Small Cell Lung; for GI50: NCI-H522, Non-Small-Cell Lung; for CC50: read-out: 50% lethal concentration (LC50)
MDA-MB-435 = conditions: MDA-MB-435, Melanoma; for CC50: read-out: 50% lethal concentration (LC50)
786-0 = conditions: 786-0, Renal; for CC50: read-out: 50% lethal concentration (LC50)
HCT-15 = conditions: HCT-15, Colon; for CC50: read-out: 50% lethal concentration (LC50)
HL-60(TB) = conditions: for CC50: read-out: 50% lethal concentration (LC50), Leukemia
COLO 205 = conditions: COLO 205, Colon
OVCAR-4 = type: cell-based; conditions: OVCAR-4, Ovarian; for CC50: read-out: 50% lethal concentration (LC50)
OVCAR-5 = conditions: OVCAR-5, Ovarian; for CC50: read-out: 50% lethal concentration (LC50)
SK-MEL-5 = conditions: SK-MEL-5, Melanoma; for CC50: read-out: 50% lethal concentration (LC50)
T-47D = conditions: for GI50 / Total growth inhibition (TGI): Breast; for CC50: read-out: 50% lethal concentration (LC50), Breast
PC-3 = conditions: PC-3, Prostate; for CC50: read-out: 50% lethal concentration (LC50)
HCT-116 = type: cell-based; conditions: HCT-116, Colon; for CC50: read-out: 50% lethal concentration (LC50)
IGROV1 = conditions: IGROV1, Ovarian; for CC50: read-out: 50% lethal concentration (LC50)
NCI-H23 = conditions: for Total growth inhibition (TGI) / CC50: NCI-H23, Non-Small Cell Lung; for GI50: NCI-H23, Non-Small-Cell Lung; for CC50: read-out: 50% lethal concentration (LC50)
BT-549 = type: cell-based; conditions: BT-549, Breast
SNB-19 = type: cell-based; conditions: SNB-19, CNS
MOLT-4 = conditions: MOLT-4, Leukemia; for CC50: read-out: 50% lethal concentration (LC50)
TK-10 = type: cell-based; conditions: TK-10, Renal
SK-OV-3 = conditions: SK-OV-3, Ovarian; for CC50: read-out: 50% lethal concentration (LC50)
CCRF-CEM = conditions: for CC50: read-out: 50% lethal concentration (LC50), Leukemia
[1] = read-out: 50% lethal concentration (LC50)

C=C1CCC2C3(C)COC(c4cn(-c5ccccc5)nc4-c4ccc(Br)cc4)OC3CCC2(C)C1CC=C1C(=O)OCC1O (centres unmarked) [1h]
GI50 (SF-295): 1.54 µM | Total growth inhibition (TGI) (SF-295): 2.93 µM | CC50 (SF-295): 5.57 µM | GI50 (SNB-75): 1.51 µM | Total growth inhibition (TGI) (SNB-75): 2.91 µM | CC50 (SNB-75): 5.75 µM | GI50 (SF-268): 2.11 µM | Total growth inhibition (TGI) (SF-268): 4.68 µM | CC50 (SF-268): 11.5 µM | GI50 (UO-31): 2.07 µM | Total growth inhibition (TGI) (UO-31): 2.52 µM | CC50 (UO-31): 5.34 µM | GI50 (DU-145): 1.77 µM | Total growth inhibition (TGI) (DU-145): 3.59 µM | CC50 (DU-145; [1]): 7.28 µM | GI50 (RPMI-8226): 1.28 µM | Total growth inhibition (TGI) (RPMI-8226): > 100 µM | CC50 (RPMI-8226): > 100 µM | GI50 (UACC-257): 1.7 µM | Total growth inhibition (TGI) (UACC-257): 3.35 µM | Total growth inhibition (TGI) (HOP-92): 2.92 µM | GI50 (HOP-92): 1.38 µM | CC50 (HOP-92): 6.2 µM | GI50 (ACHN): 2.07 µM | Total growth inhibition (TGI) (ACHN): 4.78 µM | CC50 (ACHN): > 100 µM | GI50 (UACC-62): 1.58 µM | Total growth inhibition (TGI) (UACC-62): 3.13 µM | CC50 (UACC-62): 6.2 µM | GI50 (HCC-2998): 1.83 µM | Total growth inhibition (TGI) (HCC-2998): 3.49 µM | GI50 (K-562): 2.07 µM | CC50 (K-562): > 100 µM | Total growth inhibition (TGI) (NCI-H522): 3.37 µM | GI50 (NCI-H522): 1.69 µM | CC50 (NCI-H522): 6.68 µM | GI50 (MDA-MB-435): 1.67 µM | Total growth inhibition (TGI) (MDA-MB-435): 3.34 µM | CC50 (MDA-MB-435): 6.67 µM | GI50 (786-0): 2.07 µM | Total growth inhibition (TGI) (786-0): 4.49 µM | CC50 (786-0): 9.76 µM | GI50 (HCT-15): 1.6 µM | Total growth inhibition (TGI) (HCT-15): 3.3 µM | CC50 (HCT-15): 6.83 µM | GI50 (HL-60(TB); Leukemia): 0.67 µM | CC50 (HL-60(TB)): > 100 µM | GI50 (COLO 205): 1.7 µM | Total growth inhibition (TGI) (COLO 205): 3.51 µM | GI50 (OVCAR-4): 1.89 µM | Total growth inhibition (TGI) (OVCAR-4): 4.27 µM | CC50 (OVCAR-4): > 100 µM | GI50 (OVCAR-5): 1.93 µM | Total growth inhibition (TGI) (OVCAR-5): 5.08 µM | CC50 (OVCAR-5): > 100 µM | GI50 (SK-MEL-5): 1.6 µM | Total growth inhibition (TGI) (SK-MEL-5): 2.96 µM | CC50 (SK-MEL-5): 5.44 µM | GI50 (T-47D): 1.18 µM | Total growth inhibition (TGI) (T-47D): 3.13 µM | CC50 (T-47D): 8.33 µM | GI50 (PC-3): 2.03 µM | CC50 (PC-3): > 100 µM | GI50 (HCT-116): 0.94 µM | Total growth inhibition (TGI) (HCT-116): 2.48 µM | CC50 (HCT-116): 6.3 µM | GI50 (IGROV1): 1.67 µM | Total growth inhibition (TGI) (IGROV1): 5.16 µM | CC50 (IGROV1): > 100 µM | Total growth inhibition (TGI) (NCI-H23): 3.62 µM | GI50 (NCI-H23): 1.71 µM | CC50 (NCI-H23): 7.67 µM | GI50 (BT-549): 1.47 µM | Total growth inhibition (TGI) (BT-549): 3.5 µM | GI50 (SNB-19): 1.47 µM | GI50 (MOLT-4): 0.61 µM | CC50 (MOLT-4): > 100 µM | GI50 (TK-10): 1.19 µM | GI50 (SK-OV-3): 2.03 µM | Total growth inhibition (TGI) (SK-OV-3): 8.27 µM | CC50 (SK-OV-3): > 100 µM | GI50 (CCRF-CEM; Leukemia): 0.48 µM | CC50 (CCRF-CEM): > 100 µM

C=C1CCC2C3(C)COC(c4cn(-c5ccccc5)nc4-c4ccccc4)OC3CCC2(C)C1CC=C1C(=O)OCC1O (centres unmarked) [1a]
GI50 (SF-295): 1.64 µM | Total growth inhibition (TGI) (SF-295): 3.05 µM | CC50 (SF-295): 5.67 µM | GI50 (SNB-75): 1.36 µM | Total growth inhibition (TGI) (SNB-75): 3.9 µM | CC50 (SNB-75): 26.5 µM | GI50 (SF-268): 3.2 µM | Total growth inhibition (TGI) (SF-268): 20.5 µM | CC50 (SF-268): > 100 µM | GI50 (UO-31): 1.35 µM | Total growth inhibition (TGI) (UO-31): 2.69 µM | CC50 (UO-31): 5.36 µM | GI50 (DU-145): 2.05 µM | Total growth inhibition (TGI) (DU-145): 4.16 µM | GI50 (RPMI-8226): 2.02 µM | Total growth inhibition (TGI) (RPMI-8226): 8.62 µM | CC50 (RPMI-8226): > 100 µM | GI50 (UACC-257): 1.9 µM | Total growth inhibition (TGI) (UACC-257): 3.8 µM | CC50 (UACC-257; [1]): 7.62 µM | Total growth inhibition (TGI) (HOP-92): 2.99 µM | GI50 (HOP-92): 1.53 µM | CC50 (HOP-92): 5.83 µM | GI50 (ACHN): 1.64 µM | Total growth inhibition (TGI) (ACHN): 3.05 µM | CC50 (ACHN): 5.67 µM | GI50 (UACC-62): 1.65 µM | Total growth inhibition (TGI) (UACC-62): 3.2 µM | CC50 (UACC-62): 6.22 µM | GI50 (HCC-2998): 1.68 µM | Total growth inhibition (TGI) (HCC-2998): 3.11 µM | CC50 (HCC-2998; [1]): 5.76 µM | GI50 (K-562): 2.97 µM | Total growth inhibition (TGI) (K-562): > 100 µM | CC50 (K-562): > 100 µM | Total growth inhibition (TGI) (NCI-H522): 3.86 µM | GI50 (NCI-H522): 1.9 µM | CC50 (NCI-H522): 7.85 µM | GI50 (MDA-MB-435): 1.86 µM | Total growth inhibition (TGI) (MDA-MB-435): 4.19 µM | CC50 (MDA-MB-435): 9.43 µM | GI50 (786-0): 2.03 µM | Total growth inhibition (TGI) (786-0): 4.47 µM | CC50 (786-0): 9.83 µM | GI50 (HCT-15): 1.72 µM | Total growth inhibition (TGI) (HCT-15): 3.45 µM | CC50 (HCT-15): 6.91 µM | GI50 (HL-60(TB); Leukemia): 2.32 µM | Total growth inhibition (TGI) (HL-60(TB); Leukemia): 7.4 µM | CC50 (HL-60(TB)): > 100 µM | GI50 (COLO 205): 2.01 µM | Total growth inhibition (TGI) (COLO 205): 3.57 µM | CC50 (COLO 205; [1]): 6.31 µM | GI50 (OVCAR-4): 2.31 µM | CC50 (OVCAR-4): > 100 µM | GI50 (OVCAR-5): 1.86 µM | CC50 (OVCAR-5): 8.71 µM | GI50 (SK-MEL-5): 1.4 µM | Total growth inhibition (TGI) (SK-MEL-5): 2.7 µM | CC50 (SK-MEL-5): 5.2 µM | GI50 (T-47D): 1.42 µM | Total growth inhibition (TGI) (T-47D): 3.47 µM | CC50 (T-47D): 8.47 µM | GI50 (PC-3): 1.95 µM | Total growth inhibition (TGI) (PC-3): 4.7 µM | CC50 (PC-3): 66.9 µM | GI50 (HCT-116): 1.61 µM | Total growth inhibition (TGI) (HCT-116): 3.55 µM | CC50 (HCT-116): 7.83 µM | GI50 (IGROV1): 1.77 µM | Total growth inhibition (TGI) (IGROV1): 3.44 µM | CC50 (IGROV1): 6.66 µM | Total growth inhibition (TGI) (NCI-H23): 3.08 µM | GI50 (NCI-H23): 1.69 µM | CC50 (NCI-H23): 5.64 µM | GI50 (BT-549): 1.64 µM | Total growth inhibition (TGI) (BT-549): 3.16 µM | CC50 (BT-549; [1]): 6.1 µM | GI50 (SNB-19): 1.85 µM | Total growth inhibition (TGI) (SNB-19): 3.78 µM | CC50 (SNB-19; [1]): 7.73 µM | GI50 (MOLT-4): 1.97 µM | Total growth inhibition (TGI) (MOLT-4): > 100 µM | CC50 (MOLT-4): > 100 µM | GI50 (TK-10): 1.78 µM | Total growth inhibition (TGI) (TK-10): 3.39 µM | CC50 (TK-10; [1]): 6.46 µM | GI50 (SK-OV-3): 1.77 µM | Total growth inhibition (TGI) (SK-OV-3): 18.7 µM | CC50 (SK-OV-3): 91.1 µM | GI50 (CCRF-CEM; Leukemia): 0.59 µM | Total growth inhibition (TGI) (CCRF-CEM; Leukemia): 3.37 µM | CC50 (CCRF-CEM): > 100 µM
